Measurements: patent publication US20080076770A1, “SOLUBLE EPOXIDE HYDROLASE INHIBITORS” (Arete Therapeutics, Inc., priority 2006, published 2008)

Key:
[1] = system: soluble epoxide hydrolase (sEH); test: Fluorescent assay for mouse and human soluble epoxide hydrolase (CMNPC substrate); type: biochemical; details: recombinant sEH, CMNPC substrate 5 μM, 30° C
Text: Fluorescent Assay for Mouse and Human Soluble Epoxide Hydrolase
Recombinant mouse sEH (MsEH) and human sEH (HsEH) were produced in a baculovirus expression system as previously reported. Grant et al., J. Biol. Chem., 268:17628-17633 (1993); Beetham et al., Arch. Biochem. Biophys., 305:197-201 (1993). The expressed proteins were purified from cell lysate by affinity chromatography. Wixtrom et al., Anal. Biochem., 169:71-80 (1988). Protein concentration was quantified using the Pierce BCA assay using bovine serum albumin as the calibrating standard. The preparations were at least 97% pure as judged by SDS-PAGE and scanning densitometry. They contained no detectable esterase or glutathione transferase activity which can interfere with the assay. The assay was also evaluated with similar results in crude cell lysates or homogenate of tissues.
The IC50s for each inhibitor were according to the following procedure: Substrate: [drawing 66]
Cyano(2-methoxynaphthalen-6-yl)methyl (3-phenyloxiran-2-yl)methyl carbonate (CMNPC; Jones P. D. et. al.; Analytical Biochemistry 2005; 343: pp. 66-75)
Bis/Tris HCl 25 mM pH 7.0 containing 0.1 mg/mL of BSA (buffer A)
CMNPC at 0.25 mM in DMSO.
Mother solution of enzyme in buffer A (Mouse sEH at 6 μg/mL and Human sEH at 5 μg/mL).
Inhibitor dissolved in DMSO at the appropriate concentration.
In a black 96 well plate, fill all the wells with 150 μL of buffer A.
Add 2 μL of DMSO in well A2 and A3, and then add 2 μL of inhibitor solution in A1 and A4 through A 12.
Add 150 μL of buffer A in row A, then mix several time and transfer 150 μL to row B. Repeat this row operation up to row H. The 150 μL removed from row H go to the trash.
Add 20 μL of buffer A in column 1 and 2, then add 20 μL of enzyme solution to column 3 to 12.
Incubate the plate for 5 minutes in the plate reader at 30° C.
During incubation prepare the working solution of substrate by mixing 3.68 mL of buffer A (4×0.920 mL) with 266 μL (2×133 μL (2×133 μL) of substrate solution).
At t=0, add 30 μL of working substrate solution with multi-channel pipette labeled “Briggs 303” and start the reading ([S]final: 5 μM).
Read with ex: 330 nm (20 nm) and em: 465 nm (20 nm) every 30 second for 10 minutes. The velocities are used to analyze and calculate the IC50s.

Row | Compound | % I ([1]; compound concentration 50 nM) | melting point | % I ([1]; compound concentration 500 nM)
1 | O=C(Nc1ccc(-n2cnc(Cl)c2Cl)cc1)Nc1ccc(C(F)(F)F)cc1 [Compound 13, 1-[4-(4,5-dichloro-1H-imidazol-1-yl)-phenyl]-3-(4-trifluoromethyl-phenyl)-urea] | 95% | 221 to 224 °C | –
2 | O=C(Nc1ccc(-n2ccnc2)cc1)NC12CC3CC(CC(C3)C1)C2 [Compound 1, 1-Adamantan-1-yl-3-[4-(1H-imidazol-1-yl)-phenyl]-urea] | – | 272 to 276 °C | –
3 | O=C(Nc1ccc(N2CCCC2=O)cc1)NC12CC3CC(CC(C3)C1)C2 [Compound 5, 1-Adamantan-1-yl-3-[4-(2-oxo-pyrrolidin-1-yl)-phenyl]-urea] | 82% | > 300 °C | –
4 | O=C(Nc1cccc(N2CCCC2=O)c1)NC12CC3CC(CC(C3)C1)C2 [Compound 10, 1-Adamantan-1-yl-3-[3-(2-oxo-pyrrolidin-1-yl)-phenyl]-urea] | – | 239 to 242 °C | 88%

Results, then the compound that gave them:

Row | % I ([1]; compound concentration 50 nM) | melting point | % I ([1]; compound concentration 500 nM) | Compound
5 | 96% | 234 to 238 °C | – | Cc1nccn1-c1ccc(NC(=O)Nc2ccc(C(F)(F)F)cc2)cc1 [Compound 12, 1-[4-(2-methyl-1H-imidazol-1-yl)-phenyl]-3-(4-trifluoromethyl-phenyl)-urea]
6 | 74% | 282 to 285 °C | – | O=C(Nc1ccc(N2CCCC2=O)cc1)Nc1ccc(C(F)(F)F)cc1 [Compound 15]
7 | 92% | 209 to 213 °C | – | O=C(Nc1ccc(-n2ccnc2)cc1)Nc1ccc(C(F)(F)F)cc1 [Compound 11, 1-(4-(1H-imidazol-1-yl)-phenyl)-3-(4-trifluoromethyl-phenyl)-urea]
8 | 79% | 240 to 244 °C | – | O=C(Nc1ccc(C(F)(F)F)cc1)Nc1cccc(N2CCOCC2)c1 [Compound 19, 1-(3-Morpholin-4-yl-phenyl)-3-(4-trifluoromethyl-phenyl)-urea]
9 | 87% | 228 to 232 °C | – | O=C(Nc1ccc(N2CCOCC2)cc1)Nc1ccc(C(F)(F)F)cc1 [Compound 14, 1-(4-Morpholin-4-yl-phenyl)-3-(4-trifluoromethyl-phenyl)-urea]
10 | 84% | 220 to 224 °C | – | O=C(Nc1ccc(C(F)(F)F)cc1)Nc1cccc(N2CCCC2=O)c1 [Compound 20, 1-[3-(2-Oxo-pyrrolidin-1-yl)-phenyl]-3-(4-trifluoromethyl-phenyl)-urea]
